PMC4595804, “A strategy to discover decoy chemokine ligands with an anti-inflammatory activity” (Scientific Reports, 2015)

What was measured:
CCL22 = target: T1, CCL22 (Homo sapiens, UniProt O00626); experiment: CCL22-induced EGFP-CCR4 receptor internalization (flow cytometry); format: cell-based; conditions: 100 nM CCL22, 30 min, 0.03–3 μM compound; read-out: half-maximal efficiency, reduction of CCL22-induced CCR4 internalization
T1 construct: codes for the mature CCL17 or CCL22 with an N-terminal thioredoxin-hexahistidin (TRX- (His)6) tag; thioredoxin (TRX) (N, cleaved yes); (His)6 (N, cleaved yes); made in house; host or cells: E. coli BL21 (DE3)
T1 sequence (O00626 25-93): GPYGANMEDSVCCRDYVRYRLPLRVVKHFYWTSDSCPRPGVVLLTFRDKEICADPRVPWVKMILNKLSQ
Experimental: Figure 6 (a) Selectivity of CCL17 and CCL22 neutraligands towards 10 chemokines according to the “neutraligand protocol”. […] Each column represents the mean (block) ± SD (bars) of n = 3 experiments performed in triplicate. *p < 0.05; **p < 0.01; ***p < 0.005 as compared to chemokine + DMSO. (b) Chemokine neutraligands inhibited CCR4 endocytosis induced by CCL22 or CCL17. EGFP-CCR4^+ HEK cells were incubated for 30 min with DMSO or chemokine (100 nM CCL22 or CCL17) in the presence or absence of test compounds. […] Cell surface EGFP-tagged CCR4 receptors were measured by EGFP antibody labeling and flow cytometry analysis. CCR4 internalization was expressed as a percentage of total receptor surface expression calculated using control cells incubated with DMSO (100%). Each column represents the mean (block) ± SD (bars) of n = 3 experiments performed in triplicate. *p < 0.05; **p < 0.01; ***p < 0.005 as compared to chemokine alone. (c,d) Inhibition of CCL17 and CCL22- induced CCR4^+HUT78 T cell chemotaxis by neutraligands. […] The number of migrating cells in the presence of chemokine and compounds were expressed as the corresponding percentages. Results were analyzed by fitting the experimental curves (% of migrating cells vs log compound concentration) using the Kaleidagraph software program, and the corresponding IC50 values were calculated. […]

mouse CCL22 = target: T2, mouse CCL22 (Mus musculus, UniProt O88430); experiment: Calcium responses induced by mouse CCL22, neutraligand protocol, CCR4+Gqi5+ HEK cells; format: cell-based; conditions: 5 nM mouse CCL22 preincubated 1 h with compound; read-out: IC50, inhibition of mouse CCL22-evoked calcium responses
T2 construct: purchased R&D systems
T2 sequence (O88430 25-92): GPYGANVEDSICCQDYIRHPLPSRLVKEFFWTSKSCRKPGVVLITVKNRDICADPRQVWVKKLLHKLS
Experimental: Dye loaded cells were placed in the FlexStation 3 (Molecular Devices). Calcium mobilization was measured at 401 and 475 nm emission fluorescence after excitation at 355 nm. For the primary screening, the ligands (50μl of chemokine mixed with DMSO or test compounds) were added to the cells at 40 s, followed by digitonin addition (50μl) at 100 s to the cells. Molecules were screened at a final concentration of 2μg/ml with 5 nM CCL17 or CCL22. […] Raw fluorescence data (at 401 and 475 nm) were exported and the ratio 401/475 was calculated. The calcium response values (height of peak response over baseline) were determined. Hits were selected by comparing the response amplitude at the time of the chemokine addition ± test compound. The Z’ factor[29] was calculated according to the following equation: Z’ = 1-(3SD+ + 3SD−)/|Ave+ − Ave−|, where SD+ and Ave+ are respectively the standard deviation and the mean value of the positive controls (chemokine + DMSO), while SD− and Ave− are respectively the standard deviation and the mean value of the negative controls (HEPES-BSA (0.1%) mixed with DMSO, or cells mixed with C-021). Hit molecules were confirmed by performing concentration-response curves and their half maximal inhibitory concentration (IC50) values were calculated using the Kaleidagraph software. […]
neutraligand. Human (○) or mouse (●) CCL17 (5nM) was preincubated with increasing […]

SMILES: O=C(OCC(O)CO)c1ccccc1O (centres unmarked) [GPN136, 2,3-dihydroxypropyl 2-hydroxybenzoate]
- IC50 (CCL22): ~0.1 µM
- IC50 (mouse CCL22): 8.1 ± 1.5 µM
